Tests used:
Type in all cases: ADME
CYP2A6 [1] = molecular target: T1, CYP2A6 (Homo sapiens, UniProt P11509); assay: Inhibition of CYP2A6 in human liver microsomes assessed as enzyme-mediated metabolite formation at 10 uM using coumarin as substrate incubated for 5 mins followed by NADPH addition measured after 30 mins by LC-MS/MS analysis relative to control; set-up: scale not given: the % may be the effect or the level left; conditions: probe coumarin, read-out: Activity
T1 sequence (P11509 whole entry): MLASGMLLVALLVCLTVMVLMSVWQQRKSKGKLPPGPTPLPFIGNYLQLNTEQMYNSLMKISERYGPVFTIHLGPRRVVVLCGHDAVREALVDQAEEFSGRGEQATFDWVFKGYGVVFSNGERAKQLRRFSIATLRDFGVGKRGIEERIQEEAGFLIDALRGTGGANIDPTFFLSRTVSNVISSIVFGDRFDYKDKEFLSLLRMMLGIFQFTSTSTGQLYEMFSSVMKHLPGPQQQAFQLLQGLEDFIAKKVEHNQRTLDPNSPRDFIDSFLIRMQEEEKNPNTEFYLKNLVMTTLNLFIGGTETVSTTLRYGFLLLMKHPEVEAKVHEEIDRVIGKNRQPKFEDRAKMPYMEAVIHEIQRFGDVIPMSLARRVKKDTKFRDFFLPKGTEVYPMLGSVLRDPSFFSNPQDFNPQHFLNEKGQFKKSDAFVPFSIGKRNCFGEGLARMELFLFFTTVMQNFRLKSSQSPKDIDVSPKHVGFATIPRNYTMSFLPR

Cytochrome P450 2A6 = molecular target: T2, Cytochrome P450 2A6 (Homo sapiens, UniProt P11509); assay: Inhibition of CYP2A6 in human liver microsomes assessed as enzyme-mediated metabolite formation using coumarin as substrate incubated for 5 mins followed by NADPH addition measured after 30 mins by LC-MS/MS analysis
T2 sequence (P11509 whole entry): T1 sequence (P11509 whole entry)

CYP2C9 [2] = molecular target: T3, CYP2C9 (Homo sapiens, UniProt P11712); assay: Inhibition of CYP2C9 in human liver microsomes assessed as enzyme-mediated metabolite formation at 0.3 uM using diclofenac as substrate incubated for 5 mins followed by NADPH addition measured after 30 mins by LC-MS/MS analysis relative to control; set-up: scale not given: the % may be the effect or the level left; conditions: probe diclofenac, read-out: Activity
T3 sequence (P11712 whole entry): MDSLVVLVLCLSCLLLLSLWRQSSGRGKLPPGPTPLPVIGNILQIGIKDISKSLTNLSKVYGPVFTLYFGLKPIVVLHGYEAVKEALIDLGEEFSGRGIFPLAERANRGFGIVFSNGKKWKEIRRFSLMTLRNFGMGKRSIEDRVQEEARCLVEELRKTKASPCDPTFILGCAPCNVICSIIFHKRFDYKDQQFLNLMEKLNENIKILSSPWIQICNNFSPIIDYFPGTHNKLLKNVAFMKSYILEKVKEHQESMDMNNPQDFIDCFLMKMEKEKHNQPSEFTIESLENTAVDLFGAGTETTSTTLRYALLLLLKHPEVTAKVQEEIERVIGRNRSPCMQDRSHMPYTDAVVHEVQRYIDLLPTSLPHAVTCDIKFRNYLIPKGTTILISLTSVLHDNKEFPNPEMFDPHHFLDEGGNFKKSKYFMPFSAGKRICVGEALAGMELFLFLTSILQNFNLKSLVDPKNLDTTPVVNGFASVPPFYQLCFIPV

CYP2C9 [3] = molecular target: T3, CYP2C9; assay: Inhibition of CYP2C9 in human liver microsomes assessed as enzyme-mediated metabolite formation at 30 uM using diclofenac as substrate incubated for 5 mins followed by NADPH addition measured after 30 mins by LC-MS/MS analysis relative to control; set-up: scale not given: the % may be the effect or the level left; conditions: probe diclofenac, read-out: Activity
CYP2D6 [4] = molecular target: T4, CYP2D6 (Homo sapiens, UniProt P10635); assay: Inhibition of CYP2D6 in human liver microsomes assessed as enzyme-mediated metabolite formation at 3 uM using dextromethorphan as substrate incubated for 5 mins followed by NADPH addition measured after 30 mins by LC-MS/MS analysis relative to control; set-up: scale not given: the % may be the effect or the level left; conditions: probe dextromethorphan, read-out: Activity
T4 sequence (P10635 whole entry): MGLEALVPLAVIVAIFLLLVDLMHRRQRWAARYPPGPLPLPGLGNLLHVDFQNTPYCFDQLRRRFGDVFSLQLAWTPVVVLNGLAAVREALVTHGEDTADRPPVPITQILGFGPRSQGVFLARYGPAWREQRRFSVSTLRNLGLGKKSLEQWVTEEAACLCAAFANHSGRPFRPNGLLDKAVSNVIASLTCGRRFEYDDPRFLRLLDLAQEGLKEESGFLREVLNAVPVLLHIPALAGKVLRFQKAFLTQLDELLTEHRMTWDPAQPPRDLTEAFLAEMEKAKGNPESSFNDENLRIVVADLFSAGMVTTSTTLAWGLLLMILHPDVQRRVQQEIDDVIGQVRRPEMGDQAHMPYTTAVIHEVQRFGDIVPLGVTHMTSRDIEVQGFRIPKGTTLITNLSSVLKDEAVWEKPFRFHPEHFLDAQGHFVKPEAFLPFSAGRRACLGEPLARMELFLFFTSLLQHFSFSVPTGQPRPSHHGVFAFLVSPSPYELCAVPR

CYP2D6 [5] = molecular target: T4, CYP2D6; assay: Inhibition of CYP2D6 in human liver microsomes assessed as enzyme-mediated metabolite formation at 10 uM using dextromethorphan as substrate incubated for 5 mins followed by NADPH addition measured after 30 mins by LC-MS/MS analysis relative to control; set-up: scale not given: the % may be the effect or the level left; conditions: probe dextromethorphan, read-out: Activity
CYP3A4 [6] = molecular target: T5, CYP3A4 (Homo sapiens, UniProt P08684); assay: Inhibition of CYP3A4 in human liver microsomes assessed as enzyme-mediated metabolite formation at 0.3 uM using midazolam as substrate incubated for 5 mins followed by NADPH addition measured after 30 mins by LC-MS/MS analysis relative to control; set-up: scale not given: the % may be the effect or the level left; conditions: probe midazolam, read-out: Activity
T5 sequence (P08684 whole entry): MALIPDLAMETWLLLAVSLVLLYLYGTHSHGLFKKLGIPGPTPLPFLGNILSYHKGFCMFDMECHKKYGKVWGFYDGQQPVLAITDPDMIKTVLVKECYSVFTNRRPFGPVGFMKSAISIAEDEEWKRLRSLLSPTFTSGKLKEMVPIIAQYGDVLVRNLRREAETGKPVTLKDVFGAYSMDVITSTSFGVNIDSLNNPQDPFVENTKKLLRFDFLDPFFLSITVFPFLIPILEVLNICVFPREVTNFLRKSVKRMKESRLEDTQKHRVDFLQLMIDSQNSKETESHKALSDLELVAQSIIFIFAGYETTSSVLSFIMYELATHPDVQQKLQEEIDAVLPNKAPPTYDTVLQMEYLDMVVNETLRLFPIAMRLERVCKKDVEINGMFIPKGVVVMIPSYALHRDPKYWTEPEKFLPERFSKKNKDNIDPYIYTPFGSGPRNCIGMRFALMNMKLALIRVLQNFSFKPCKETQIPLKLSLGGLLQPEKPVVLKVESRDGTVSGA

CYP3A4 [7] = molecular target: T5, CYP3A4; assay: Inhibition of CYP3A4 in human liver microsomes assessed as enzyme-mediated metabolite formation at 3 uM using testosterone as substrate incubated for 5 mins followed by NADPH addition measured after 30 mins by LC-MS/MS analysis relative to control; set-up: scale not given: the % may be the effect or the level left; conditions: probe testosterone, read-out: Activity
CYP2A6 [8] = molecular target: T1, CYP2A6; assay: Inhibition of CYP2A6 in human liver microsomes assessed as enzyme-mediated metabolite formation at 3 uM using coumarin as substrate preincubated for 20 mins followed by substrate addition measured after 30 mins in presence of NADPH by LC-MS/MS analysis relative to control; set-up: scale not given: the % may be the effect or the level left; conditions: probe coumarin, read-out: Activity
CYP2A6 [9] = molecular target: T1, CYP2A6; assay: Inhibition of CYP2A6 in human liver microsomes assessed as enzyme-mediated metabolite formation at 10 uM using coumarin as substrate preincubated for 20 mins followed by substrate addition measured after 30 mins in presence of NADPH by LC-MS/MS analysis relative to control; set-up: scale not given: the % may be the effect or the level left; conditions: probe coumarin, read-out: Activity
CYP2B6 = molecular target: T6, CYP2B6 (Homo sapiens, UniProt P20813); assay: Inhibition of CYP2B6 in human liver microsomes assessed as enzyme-mediated metabolite formation at 0.1 uM using bupropion as substrate preincubated for 20 mins followed by substrate addition measured after 30 mins in presence of NADPH by LC-MS/MS analysis relative to control; set-up: scale not given: the % may be the effect or the level left; conditions: probe bupropion, read-out: Activity
T6 sequence (P20813 whole entry): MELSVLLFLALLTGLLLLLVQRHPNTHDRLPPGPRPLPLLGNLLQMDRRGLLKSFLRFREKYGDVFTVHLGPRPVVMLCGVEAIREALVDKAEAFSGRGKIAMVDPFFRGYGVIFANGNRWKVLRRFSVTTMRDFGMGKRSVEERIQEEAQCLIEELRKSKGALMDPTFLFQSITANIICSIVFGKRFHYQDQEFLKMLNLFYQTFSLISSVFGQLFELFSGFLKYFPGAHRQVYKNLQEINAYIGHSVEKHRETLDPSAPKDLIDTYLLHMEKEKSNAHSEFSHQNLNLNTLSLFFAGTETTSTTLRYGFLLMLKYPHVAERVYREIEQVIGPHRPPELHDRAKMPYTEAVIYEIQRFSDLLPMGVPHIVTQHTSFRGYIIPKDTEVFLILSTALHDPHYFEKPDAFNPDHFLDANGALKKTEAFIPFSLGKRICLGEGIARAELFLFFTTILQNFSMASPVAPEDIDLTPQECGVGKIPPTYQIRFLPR

CYP2C9 [10] = molecular target: T3, CYP2C9; assay: Inhibition of CYP2C9 in human liver microsomes assessed as enzyme-mediated metabolite formation at 0.3 uM using diclofenac as substrate preincubated for 20 mins followed by substrate addition measured after 30 mins in presence of NADPH by LC-MS/MS analysis relative to control; set-up: scale not given: the % may be the effect or the level left; conditions: probe diclofenac, read-out: Activity
CYP2C9 [11] = molecular target: T3, CYP2C9; assay: Inhibition of CYP2C9 in human liver microsomes assessed as enzyme-mediated metabolite formation at 1 uM using diclofenac as substrate preincubated for 20 mins followed by substrate addition measured after 30 mins in presence of NADPH by LC-MS/MS analysis relative to control; set-up: scale not given: the % may be the effect or the level left; conditions: probe diclofenac, read-out: Activity
CYP2D6 [12] = molecular target: T4, CYP2D6; assay: Inhibition of CYP2D6 in human liver microsomes assessed as enzyme-mediated metabolite formation at 1 uM using dextromethorphan as substrate preincubated for 20 mins followed by substrate addition measured after 30 mins in presence of NADPH by LC-MS/MS analysis relative to control; set-up: scale not given: the % may be the effect or the level left; conditions: probe dextromethorphan, read-out: Activity
CYP3A4 [13] = molecular target: T5, CYP3A4; assay: Inhibition of CYP3A4 in human liver microsomes assessed as enzyme-mediated metabolite formation at 1 uM using midazolam as substrate preincubated for 20 mins followed by substrate addition measured after 30 mins in presence of NADPH by LC-MS/MS analysis relative to control; set-up: scale not given: the % may be the effect or the level left; conditions: probe midazolam, read-out: Activity
CYP3A4 [14] = molecular target: T5, CYP3A4; assay: Inhibition of CYP3A4 in human liver microsomes assessed as enzyme-mediated metabolite formation at 10 uM using testosterone as substrate preincubated for 20 mins followed by substrate addition measured after 30 mins in presence of NADPH by LC-MS/MS analysis relative to control; set-up: scale not given: the % may be the effect or the level left; conditions: probe testosterone, read-out: Activity

activity at 0.5 h, 10 µM (CYP2A6 [1]): 81.5% | IC50 (Cytochrome P450 2A6): > 30 µM | activity at 0.5 h, 0.3 µM (CYP2C9 [2]): 93.6% | activity at 0.5 h, 30 µM (CYP2C9 [3]): 30.9% | activity at 0.5 h, 3 µM (CYP2D6 [4]): 74.6% | activity at 0.5 h, 10 µM (CYP2D6 [5]): 60.4% | activity at 0.5 h, 0.3 µM (CYP3A4 [6]): 103% | activity at 0.5 h, 3 µM (CYP3A4 [7]): 63.3% | activity at 0.5 h, 3 µM (CYP2A6 [8]): 104% | activity at 0.5 h, 10 µM (CYP2A6 [9]): 96.1% | activity at 0.5 h, 0.1 µM (CYP2B6): 88.5% | activity at 0.5 h, 0.3 µM (CYP2C9 [10]): 72.6% | activity at 0.5 h, 1 µM (CYP2C9 [11]): 81.1% | activity at 0.5 h, 1 µM (CYP2D6 [12]): 92.2% | activity at 0.5 h, 1 µM (CYP3A4 [13]): 91.5% | activity at 0.5 h, 10 µM (CYP3A4 [14]): 83.6%
SMILES: CCCCCCCC(=O)CCc1ccc(O)c(OC)c1

Reference: ChEMBL document CHEMBL4007467, “Effects of 6-paradol, an unsaturated ketone from gingers, on cytochrome P450-mediated drug metabolism” (Bioorg Med Chem Lett, 2017)
